The structures appear in SMILES notation.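 Compound exposure: 48 hours, 5 concentrations, 96-well plates. TGI denotes the concentration required for complete inhibition of growth.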 Where a SMILES comes first, the peptide text is derived from it. [ ]: non-standard residue; d: D form. The star is where a group is joined. ξ: configuration not given here. NMeF = CN[C@@H](Cc1ccccc1)C(=O)O; ξNMeV = CNC(C(=O)O)C(C)C; Boc = CC(C)(C)OC(=O)*; OBn = c1ccc(CO*)cc1

Assay in all cases: NCI anticancer screen, dose series, 48 h
Experiment [1] has as its system SNB-19 CNS.
Experiment [2] concerns MOLT-4 leukemia.
Experiment [3] concerns NCI-H23 lung.
For experiment [4], the system named is K-562 leukemia.
In experiment [5] the test system is OVCAR-5 ovarian.
Experiment [6] deals with SF-295 CNS.
The subject of experiment [7] is A549 NSCLC.
The subject of experiment [8] is HCC-2998 colon.
The subject of experiment [9] is SK-OV-3 ovarian.
In experiment [10] the test system is M14 melanoma.
Experiment [11] deals with UACC-62 melanoma.
Experiment [12] relates to SK-MEL-5 melanoma.
Experiment [13] relates to NCI-H522 lung.
The subject of experiment [14] is HOP-92 NSCLC.
Experiment [15] has as its system MDA-MB-231 breast.
Experiment [16] concerns T-47D breast.
Experiment [17] relates to DU-145 prostate.

For the compound `COc1cc(C(C)c2cc3c(cc2OCCCCOc2cc4c(cc2C(C)c2cc(OC)c(OC)c(OC)c2)OCO4)OCO3)cc(OC)c1OC` (configuration not stated), the TGI is > 100 µM in [1]; > 100 µM in experiment [2]; > 100 µM in [3]; > 100 µM in experiment [4]; > 100 µM in [5]; 91.3 µM in experiment [6]. Moreover, the TGI was > 100 µM in experiment [7]; > 100 µM in experiment [8]; 91.8 µM in experiment [9]; 99.4 µM in experiment [10]; > 100 µM in [11]; > 100 µM in experiment [12].

On to `CC(C)C(C(=O)N1CCC[C@@H]1C(=O)OCc1ccccc1)N(C)C(=O)C(C(C)C)N(C)C(=O)[C@H](Cc1ccccc1)N(C)C(=O)[C@H](NC(=O)OC(C)(C)C)C(C)C` (some centres not stated) (Boc-[dV][NMeF][ξNMeV][ξNMeV][dP]-OBn), for which the TGI in experiment [1], in experiment [2], in [3], in [4], in experiment [5] and in experiment [6] was > 100 µM each time. The TGI in experiment [7], in experiment [8], in experiment [9], in experiment [10], in experiment [13] and in experiment [11] was > 100 µM each time. Also, the TGI in experiment [14] and in experiment [12] was > 100 µM throughout.

With `COc1ccc(C2ON(c3ccccn3)CC=C2C)cc1` (configuration not stated), the TGI in [1], in experiment [2], in experiment [3], in experiment [4], in experiment [5] and in experiment [6] was > 100 µM each time. Moreover, the TGI in [7], in [8], in experiment [9], in [10], in experiment [13] and in [11] was > 100 µM in each case. Besides, the TGI in experiment [12] is > 100 µM.

`COC(=O)C1C2C=CC(C2)N1S(=O)(=O)c1ccccc1` (configuration not stated): the TGI in experiment [1], in [2], in [3], in [4], in experiment [5] and in experiment [6] was > 100 µM throughout. The TGI in [7], in [9], in [10], in [13], in [11] and in experiment [15] was > 100 µM throughout. Moreover, the TGI in experiment [16], in experiment [14], in experiment [12] and in experiment [17] was > 100 µM in each case.

On to `O=C1C2CCC(C2)C12CC1(c3ccccc3)C(=O)c3ccccc3N1O2` (configuration not stated), for which the TGI in experiment [1], in experiment [2], in experiment [3], in experiment [4], in experiment [6] and in experiment [7] was > 100 µM throughout. Besides, the TGI in experiment [8], in [9], in experiment [10], in experiment [13], in [11] and in experiment [14] was > 100 µM each time. The TGI in [12] is > 100 µM.

On to `CC12CC[C@H](O)C(C)(C)[C@H]1CC[C@](C)(O)C2COc1ccc2ccc(=O)oc2c1` (some centres not stated), for which the TGI in experiment [1], in experiment [2], in experiment [3], in experiment [4], in experiment [6] and in experiment [7] was > 100 µM throughout. In addition, the TGI in [8], in experiment [9], in [10], in experiment [13], in experiment [11] and in [14] was > 100 µM in each case.

On to `CC(C)c1cccc(C(C)C)c1NC(=O)C(=O)C(C(=O)c1ccc2ccccc2c1)C1OC(=O)c2ccccc21` (configuration not stated), for which the TGI in [1], in [2], in [3], in experiment [4], in [5] and in [6] was > 100 µM each time. The TGI in [7], in experiment [8], in experiment [9], in experiment [10], in experiment [13] and in experiment [11] was > 100 µM each time. Also, the TGI in [14] and in experiment [12] was > 100 µM throughout.

Turning to `CC(=O)OC1CC2(c3ccccc3)C(=O)c3ccccc3N2O1` (configuration not stated), the TGI in experiment [1], in experiment [2], in experiment [3], in [4], in experiment [6] and in [7] was > 100 µM each time. The TGI in experiment [8], in [9], in experiment [10], in experiment [13], in experiment [11] and in experiment [14] was > 100 µM each time. The TGI in [12] is > 100 µM.

On to `CCOc1ccc(N=Nc2ccc3oc(=O)c(C(=O)Nc4ccc(OC)cc4)cc3c2)cc1`, for which the TGI in experiment [1] was 46.6 µM; in experiment [2], 44.4 µM; in [3] it was 56.9 µM; in [4], > 100 µM; in [5] it was > 100 µM; in experiment [6], > 100 µM. Further, the TGI is > 100 µM in experiment [7]; 36.8 µM in experiment [8]; 84.8 µM in experiment [9]; 87.8 µM in experiment [13]; 93.1 µM in [11]; 38.8 µM in experiment [12].

As to `NC(=S)N1N=C2c3ccccc3CC[C@H]2[C@@H]1c1cccs1`, the TGI in experiment [1] is > 100 µM; in experiment [2], 94.5 µM; in [3], 87.9 µM; in experiment [4] it was 35.5 µM; in experiment [5], > 100 µM; in experiment [6], 58.1 µM. Further, the TGI was > 100 µM in experiment [7]; > 100 µM in experiment [8]; > 100 µM in experiment [9]; 60.8 µM in experiment [10]; 56.1 µM in experiment [13]; > 100 µM in experiment [11]. In addition, the TGI in experiment [14] was > 100 µM.

The values above are taken from PubChem BioAssay (NCI).
